Laboratory results from patent US20260347338A1, “PYRIMIDINE/PYRIDINE DERIVATIVES OR SALTS THEREOF AND PHARMACEUTICAL COMPOSITIONS COMPRISING THE SAME” (YUHAN CORPORATION, priority 2023, published 2026).

What follows are compounds tested against T1, human recombinant HPK1 (Homo sapiens, UniProt Q92918) (assay: Inhibitory activity against human recombinant HPK1 (TR-FRET)). Details: ULight-p70S6K peptide, ATP at Km, room temperature, 1 hour, 0.32 to 1000 nM compound.
T1 construct: purchased BPS Bioscience
T1 sequence (Q92918 whole entry): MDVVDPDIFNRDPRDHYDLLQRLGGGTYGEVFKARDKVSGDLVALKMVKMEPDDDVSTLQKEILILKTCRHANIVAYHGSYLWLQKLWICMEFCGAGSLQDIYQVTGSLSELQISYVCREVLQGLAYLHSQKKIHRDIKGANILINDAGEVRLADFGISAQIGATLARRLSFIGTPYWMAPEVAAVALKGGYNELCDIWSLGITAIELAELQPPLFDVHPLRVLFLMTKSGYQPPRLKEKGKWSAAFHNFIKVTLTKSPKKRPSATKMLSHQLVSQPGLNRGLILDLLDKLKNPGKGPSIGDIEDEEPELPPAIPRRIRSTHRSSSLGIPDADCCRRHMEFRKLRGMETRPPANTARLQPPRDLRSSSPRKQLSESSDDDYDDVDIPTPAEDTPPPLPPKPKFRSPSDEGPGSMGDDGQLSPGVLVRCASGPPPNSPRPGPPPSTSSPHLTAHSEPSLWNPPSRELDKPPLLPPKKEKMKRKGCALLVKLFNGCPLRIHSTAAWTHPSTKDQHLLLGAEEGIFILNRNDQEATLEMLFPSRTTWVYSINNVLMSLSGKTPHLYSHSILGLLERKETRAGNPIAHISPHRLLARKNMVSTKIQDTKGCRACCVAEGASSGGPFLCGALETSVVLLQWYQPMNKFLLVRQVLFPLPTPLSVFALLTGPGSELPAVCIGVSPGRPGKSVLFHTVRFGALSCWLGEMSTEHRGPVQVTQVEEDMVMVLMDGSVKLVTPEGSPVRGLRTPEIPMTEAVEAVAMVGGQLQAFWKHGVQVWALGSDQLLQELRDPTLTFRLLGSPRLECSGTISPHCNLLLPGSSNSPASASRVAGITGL
Format: biochemical
Experimental: Test Example: Evaluation of Inhibitory Activity Against Human Recombinant HPK1
The inhibitory activity against human recombinant HPK1 was evaluated using the Time-Resolved Fluorescence Resonance Energy Transfer (TR-FRET) technology of Perkin-Elmer. The test compound was prepared as a 20 mM stock solution with dimethyl sulfoxide (DMSO), serially diluted in a buffer solution, and used at final compound concentrations of 0.32 to 1000 nM. The evaluation of inhibitory activity was carried out at room temperature, using recombinant human HPK1 (BPS Bioscience). Briefly, recombinant human HPK1, serially diluted each test compound, ULight-p70S6K peptide substrate (PerkinElmer), and ATP at each concentration (Km and final concentration) were added to a kinase buffer solution (50 mM HEPES pH 7.4, 10 mM MgCl2, 1 mM EGTA, 3 mM MnCl2, 2 mM DTT, and 0.01% Tween-20). The resulting mixture was added to each well of a 384-well plate (Optiplate™ 384, white, PerkinElmer). The enzyme reaction was carried out at room temperature for 1 hour. After the reaction was suspended by adding 4 μL of a stop solution (10 mM EDTA) thereto, the mixture was stirred for 1 minute and then a detection solution containing Europium-labeled anti-phosphopeptide antibody (final concentration: 2 nM, PerkinElmer) was added thereto. The signals of TR-FRET at excitation wavelength (320 nm) and emission wavelength (665 nm) were detected using a microplate reader (Envision Multilabel Reader, Perkin-Elmer). Inhibition by the test compound was measured as % inhibition in the signals, compared to the control group treated with DMSO only. The IC50 value of each compound was calculated using the GraphPad Prism program (GraphPad Software, Inc., San Diego, CA, USA). The IC50 values of test compounds for inhibitory activity against HPK1 were classified as follows: • A: IC50≤10 nM • B: 10 nM<IC50≤50 nM • C: 50 nM<IC50≤100 nM • D: IC50>100 nM

Compound	IC50
CCOc1cccc(F)c1-c1nccc(Nc2cc(N3CCC[C@H](O)C3)c(-c3cnn(C4CCOCC4)c3)cn2)n1 [Example 25, (S)-1-(2-((2-(2-ethoxy-6-fluorophenyl)pyrimidin-4-yl)amino)-5-(1-(tetrahydro-2H-pyran-4-yl)-1H-pyrazol-4-yl)pyridin-4-yl)piperidin-3-ol]	10 to 50 nM
O[C@H]1CCCN(c2cc(Nc3ccnc(-c4ccn5ncnc5c4)n3)ncc2-c2cnn(C3CCOCC3)c2)C1 [Example 26, (S)-1-(2-((2-([1,2,4]triazolo[1,5-a]pyridin-7-yl)pyrimidin-4-yl)amino)-5-(1-(tetrahydro-2H-pyran-4-yl)-1H-pyrazol-4-yl)pyridin-4-yl)piperidin-3-ol]	50 to 100 nM
O[C@H]1CCCN(c2cc(Nc3ccnc(-c4cnn5ccccc45)n3)ncc2-c2cnn(C3CCOCC3)c2)C1 [Example 27, (S)-1-(2-((2-(pyrazolo[1,5-a]pyridin-3-yl)pyrimidin-4-yl)amino)-5-(1-(tetrahydro-2H-pyran-4-yl)-1H-pyrazol-4-yl)pyridin-4-yl)piperidin-3-ol]	10 to 50 nM
O[C@H]1CCCN(c2cc(Nc3ccnc(-c4ccc5nccnc5c4)n3)ncc2-c2cnn(C3CCOCC3)c2)C1 [Example 28, (S)-1-(2-((2-(quinoxalin-6-yl)pyrimidin-4-yl)amino)-5-(1-(tetrahydro-2H-pyran-4-yl)-1H-pyrazol-4-yl)pyridin-4-yl)piperidin-3-ol]	10 to 50 nM
O[C@H]1CCCN(c2cc(Nc3ccnc(-c4ccc5cccnc5c4F)n3)ncc2-c2cnn(C3CCOCC3)c2)C1 [Example 29, (S)-1-(2-((2-(8-fluoroquinolin-7-yl)pyrimidin-4-yl)amino)-5-(1-(tetrahydro-2H-pyran-4-yl)-1H-pyrazol-4-yl)pyridin-4-yl)piperidin-3-ol]	≤ 10 nM
COc1cccc(F)c1-c1nccc(Nc2cc(N3CCC[C@H](O)C3)c(-c3ccc(CN4CCN(C)CC4)nc3)cn2)n1 [Example 30, (S)-1-(6-((2-(2-fluoro-6-methoxyphenyl)pyrimidin-4-yl)amino)-6′-((4-methylpiperazin-1-yl)methyl)-[3,3′-bipyridin]-4-yl)piperidin-3-ol]	10 to 50 nM
COc1cccc(F)c1-c1nccc(Nc2cc(N3CCC[C@H](O)C3)c(-c3ccc(C4CCOCC4)nc3)cn2)n1 [Example 31, (S)-1-(6-((2-(2-fluoro-6-methoxyphenyl)pyrimidin-4-yl)amino)-6′-(tetrahydro-2H-pyran-4-yl)-[3,3′-bipyridin]-4-yl)piperidin-3-ol]	≤ 10 nM
COc1cccc(F)c1-c1nccc(Nc2cc(N3CCC[C@H](O)C3)c(-c3ccc(CN4CCOCC4)nc3)cn2)n1 [Example 32, (S)-1-(6-((2-(2-fluoro-6-methoxyphenyl)pyrimidin-4-yl)amino)-6′-(morpholinomethyl)-[3,3′-bipyridin]-4-yl)piperidin-3-ol]	10 to 50 nM
COc1cccc(F)c1-c1nccc(Nc2cc(N3CCC[C@H](O)C3)c(-c3ccc(CN4CCC(O)CC4)nc3)cn2)n1 [Example 33, (S)-1-(6-((2-(2-fluoro-6-methoxyphenyl)pyrimidin-4-yl)amino)-6′-((4-hydroxypiperidin-1-yl)methyl)-[3,3′-bipyridin]-4-yl)piperidin-3-ol]	10 to 50 nM
COc1cccc(F)c1-c1nccc(Nc2cc(N3CCCC(C(N)=O)C3)c(-c3cnn(C4CCOCC4)c3)cn2)n1 (stereo not drawn) [Example 34, 1-(2-((2-(2-fluoro-6-methoxyphenyl)pyrimidin-4-yl)amino)-5-(1-(tetrahydro-2H-pyran-4-yl)-1H-pyrazol-4-yl)pyridin-4-yl)piperidin-3-carboxamide]	10 to 50 nM
COc1cccc(F)c1-c1cccc(Nc2cc(N3CCC[C@H](O)C3)c(-c3cnn(C4CCOCC4)c3)cn2)n1 [Example 35, (S)-1-(2-((6-(2-fluoro-6-methoxyphenyl)pyridin-2-yl)amino)-5-(1-(tetrahydro-2H-pyran-4-yl)-1H-pyrazol-4-yl)pyridin-4-yl)piperidin-3-ol]	≤ 10 nM
COc1cccc(F)c1-c1nccc(Nc2cc(N3CCC[C@H](O)C3)c(-c3ccc(C(=O)N4CCN(C)CC4)nc3)cn2)n1 [Example 36, (S)-(6′-((2-(2-fluoro-6-methoxyphenyl)pyrimidin-4-yl)amino)-4′-(3-hydroxypiperidin-1-yl)-[3,3′-bipyridin]-6-yl)(4-methylpiperazin-1-yl)methanone]	≤ 10 nM

Next, values leading:

IC50	Compound
10 to 50 nM	COc1cccc(F)c1-c1nccc(Nc2cc(N3CCC[C@H](O)C3)c(-c3ccc(C(=O)N4CCOCC4)nc3)cn2)n1 [Example 37, (S)-(6′-((2-(2-fluoro-6-methoxyphenyl)pyrimidin-4-yl)amino)-4′-(3-hydroxypiperidin-1-yl)-[3,3′-bipyridin]-6-yl)(morpholino)methanone]
≤ 10 nM	COc1cccc(F)c1-c1nccc(Nc2cc(N3CCC[C@H](O)C3)c(-c3ccc(C(=O)N4CCC(O)CC4)nc3)cn2)n1 [Example 38, (S)-(6′-((2-(2-fluoro-6-methoxyphenyl)pyrimidin-4-yl)amino)-4′-(3-hydroxypiperidin-1-yl)-[3,3′-bipyridin]-6-yl)(4-hydroxypiperidin-1-yl)methanone]
≤ 10 nM	COc1cccc(F)c1-c1nccc(Nc2cc(N3CCC[C@H](O)C3)c(-c3ccc(CN4CC[C@H](F)C4)nc3)cn2)n1 [Example 39, (S)-1-(6-((2-(2-fluoro-6-methoxyphenyl)pyrimidin-4-yl)amino)-6′-(((S)-3-fluoropyrrolidin-1-yl)methyl)-[3,3′-bipyridin]-4-yl)piperidin-3-ol]
≤ 10 nM	COc1cccc(F)c1-c1nc(Nc2cc(N3CCC[C@H](O)C3)c(-c3cnn(C4CCOCC4)c3)cn2)ccc1F [Example 40, (3S)-1-(2-((5-fluoro-6-(2-fluoro-6-methoxyphenyl)pyridin-2-yl)amino)-5-(1-(tetrahydro-2H-pyran-4-yl)-1H-pyrazol-4-yl)pyridin-4-yl)piperidin-3-ol]
≤ 10 nM	COc1cccc(F)c1-c1nc(Nc2cc(N3CCC[C@H](O)C3)c(-c3cnn(C4CCOCC4)c3)cn2)ccc1[N+](=O)[O-] [Example 41, (3S)-1-(2-((6-(2-fluoro-6-methoxyphenyl)-5-nitropyridin-2-yl)amino)-5-(1-(tetrahydro-2H-pyran-4-yl)-1H-pyrazol-4-yl)pyridin-4-yl)piperidin-3-ol]
10 to 50 nM	COc1cccc(F)c1-c1nccc(Nc2cc(N3CCC[C@H](O)C3)c(-c3cccnc3)cn2)n1 [Example 42, (S)-1-(6-((2-(2-fluoro-6-methoxyphenyl)pyrimidin-4-yl)amino)-[3,3′-bipyridin]-4-yl)piperidin-3-ol]
≤ 10 nM	COc1cccc(F)c1-c1nccc(Nc2cc(N3CCC[C@H](O)C3)c(-c3ccc(CN4CCC(O)C4)nc3)cn2)n1 (stereo partly drawn) [Example 43, (3S)-1-(6-((2-(2-fluoro-6-methoxyphenyl)pyrimidin-4-yl)amino)-6′-((3-hydroxypyrrolidin-1-yl)methyl)-[3,3′-bipyridin]-4-yl)piperidin-3-ol]
10 to 50 nM	COc1cccc(F)c1-c1nccc(Nc2cc(N3CCC(N(C)C)C3)c(-c3cnn(C4CCOCC4)c3)cn2)n1 (stereo not drawn) [Example 44, N-(4-(3-(dimethylamino)pyrrolidin-1-yl)-5-(1-(tetrahydro-2H-pyran-4-yl)-1H-pyrazol-4-yl)pyridin-2-yl)-2-(2-fluoro-6-methoxyphenyl)pyrimidin-4-amine]
> 100 nM	COc1cccc(F)c1-c1nccc(Nc2cc(N3CCC(C)(CO)C3)c(-c3cnn(C4CCOCC4)c3)cn2)n1 (stereo not drawn) [Example 45, (1-(2-((2-(2-fluoro-6-methoxyphenyl)pyrimidin-4-yl)amino)-5-(1-(tetrahydro-2H-pyran-4-yl)-1H-pyrazol-4-yl)pyridin-4-yl)-3-methylpyrrolidin-3-yl)methanol]
≤ 10 nM	COc1cccc(F)c1-c1nccc(Nc2cc(N3CCC(F)(CN(C)C)CC3)c(-c3cnn(C4CCOCC4)c3)cn2)n1 [Example 46, N-(4-(4-((dimethylamino)methyl)-4-fluoropiperidin-1-yl)-5-(1-(tetrahydro-2H-pyran-4-yl)-1H-pyrazol-4-yl)pyridin-2-yl)-2-(2-fluoro-6-methoxyphenyl)pyrimidin-4-amine]
≤ 10 nM	COc1cccc(F)c1-c1nccc(Nc2cc(N3CCC(CO)(CC(F)F)CC3)c(-c3cnn(C4CCOCC4)c3)cn2)n1 [Example 47, (4-(2,2-difluoroethyl)-1-(2-((2-(2-fluoro-6-methoxyphenyl)pyrimidin-4-yl)amino)-5-(1-(tetrahydro-2H-pyran-4-yl)-1H-pyrazol-4-yl)pyridin-4-yl)piperidin-4-yl)methanol]
≤ 10 nM	COc1cccc(F)c1-c1nccc(Nc2cc(N3CCC[C@H](O)C3)c(-c3ccc(CN4CCC(N(C)C)C4)nc3)cn2)n1 (stereo partly drawn) [Example 48, (3S)-1-(6′-((3-(dimethylamino)pyrrolidin-1-yl)methyl)-6-((2-(2-fluoro-6-methoxyphenyl)pyrimidin-4-yl)amino)-[3,3′-bipyridin]-4-yl)piperidin-3-ol]
